Here are results for 30 compounds from ChEMBL document CHEMBL5120837, “Synthesis and biological evaluation of conformationally restricted GluN2B ligands derived from eliprodil” (Eur J Med Chem, 2022).

The nature of experiment [1]: Displacement of [3H]ifenprodil from recombinant human GluN1A/GluN2B expressed in mouse L-M(TK-) cell membranes after 120 mins by microbeta scintillation counting method. Also noted: species or system Membrane.
Experiment [2] has as its target Sigma non-opioid intracellular receptor 1 (Cavia porcellus, UniProt Q60492). Put plainly: Displacement of [3H]-(+)-pentazocine from sigma1 receptor in guinea pig brain cortex membranes measured after 120 mins by scintillation counting method. In kind it is cell membranes, Cerebral cortex, Membrane. (Loss of bound radioactivity is the signal in a displacement assay; it reports binding, not function.)

Experiment [3] has as its target T1, Sigma intracellular receptor 2 (Rattus norvegicus, UniProt Q5U3Y7).
T1 sequence (Q5U3Y7 whole entry): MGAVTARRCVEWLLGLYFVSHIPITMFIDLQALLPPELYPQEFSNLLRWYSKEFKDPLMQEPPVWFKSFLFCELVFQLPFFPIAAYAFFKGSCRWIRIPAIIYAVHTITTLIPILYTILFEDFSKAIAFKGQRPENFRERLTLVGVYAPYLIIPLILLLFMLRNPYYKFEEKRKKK
Put plainly: Displacement of [3H]-DTG from sigma 2 receptor in rat liver membrane measured after 120 mins by microbeta counting analysis. Type of experiment: cell membranes.

For the next experiment, the system named is Oocyte. The experiment is described as follows: Antagonist activity at GluN1a/GluN2B NMDA receptor (unknown origin) expressed in Xenopus oocytes assessed as inhibition of glycine and (S)-glutamate-induced ion channel activation at 1 uM at -70 mV holding potential by two-electrode voltage clamp method relative to control. Particulars: Homo sapiens. Type of experiment: cell-based. In general terms: Two-electrode voltage clamp is typically applied to oocytes expressing channels or transporters.

Sigma non-opioid intracellular receptor 1, sequence (Q60492 whole entry): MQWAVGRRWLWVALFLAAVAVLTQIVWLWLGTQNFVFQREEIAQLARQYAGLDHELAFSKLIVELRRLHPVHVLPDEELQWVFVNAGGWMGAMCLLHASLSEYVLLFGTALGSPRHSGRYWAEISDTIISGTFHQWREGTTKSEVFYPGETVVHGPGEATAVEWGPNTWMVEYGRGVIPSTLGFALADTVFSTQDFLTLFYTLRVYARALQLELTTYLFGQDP

As to `O[C@@H](CN1[C@@H]2CC[C@H]1C/C(=C\c1ccccc1)C2)c1ccccc1`, the Ki was found to be 1.1 nM in experiment [1], 0.3 nM in experiment [2] and 6.6 nM in experiment [3].
For the compound `O[C@@H](CN1[C@@H]2CC[C@H]1C[C@H](Cc1ccc(F)cc1)C2)c1ccc(F)cc1`, the values for the Ki in experiment [1], in experiment [2] and in experiment [3] were 5.9 nM, 25 nM and 15 nM, respectively.
`O[C@H](CN1[C@@H]2CC[C@H]1C[C@@H](Cc1ccc(F)cc1)C2)c1ccccc1`: the Ki in experiment [1] is 17 nM; in experiment [2] it was 2.6 nM; in experiment [3], 19 nM. In addition, the inhibition in the experiment with Oocyte came to 2.3%.
In the case of `O[C@H](CN1[C@@H]2CC[C@H]1C/C(=C\c1ccc(Cl)cc1)C2)c1ccccc1`, the Ki in experiment [1] is 4.4 nM; in experiment [2], 1.9 nM; in experiment [3], 30 nM.
`O[C@H](CN1[C@@H]2CC[C@H]1C/C(=C/c1ccc(F)cc1)C2)c1ccccc1`: the results for the Ki in experiment [1], in experiment [2] and in experiment [3] were 9.3 nM, 6.6 nM and 27 nM, respectively. Moreover, the inhibition in the experiment with Oocyte was found to be 1.5%.
Consider `O[C@H](CN1[C@@H]2CC[C@H]1C/C(=C\c1ccccc1)C2)c1ccccc1`, for which the Ki in experiment [1] stood at 1.8 nM; in experiment [2] it was 0.8 nM; in experiment [3], 12 nM.
As to `O[C@H](CN1[C@@H]2CC[C@H]1C[C@@H](Cc1ccccc1)C2)c1ccccc1`, the figures for the Ki in experiment [1], in experiment [2] and in experiment [3] were 15 nM, 4.5 nM and 10 nM, respectively.
Take `O[C@H](CN1[C@@H]2CC[C@H]1C/C(=C/c1ccccc1)C2)c1ccccc1`: the values for the Ki in experiment [1], in experiment [2] and in experiment [3] were 21 nM, 11 nM and 27 nM, respectively.
The matching figures for `O[C@@H](CN1[C@@H]2CC[C@H]1C[C@H](Cc1ccccc1)C2)c1ccc(F)cc1`: 5.2 nM, 6.7 nM and 10 nM.
Consider `O[C@@H](CN1[C@@H]2CC[C@H]1C/C(=C\c1ccc(F)cc1)C2)c1ccccc1`, for which the Ki in experiment [1] stood at 3 nM. For the same compound, in the experiment with Oocyte, the inhibition turned out to be 1.3%.
For `O[C@@H](CN1[C@@H]2CC[C@H]1C/C(=C\c1ccccc1)C2)c1ccc(F)cc1`, the figures for the Ki in experiment [1] and in experiment [3] were 1.4 nM and 11 nM, respectively.
As for `O[C@@H](CN1[C@@H]2CC[C@H]1C/C(=C/c1ccc(F)cc1)C2)c1ccccc1`, the Ki in experiment [1] came to 16 nM. Further, the inhibition in the experiment on Oocyte was -0.9%.
Regarding `O[C@@H](CN1[C@@H]2CC[C@H]1C/C(=C\c1ccc(Cl)cc1)C2)c1ccccc1`, the Ki in experiment [1] worked out at 4.4 nM; in experiment [2], 2.7 nM; in experiment [3] it was 15 nM.
On to `O[C@@H](CN1[C@@H]2CC[C@H]1C/C(=C/c1ccccc1)C2)c1ccccc1`, for which the Ki in experiment [1] worked out at 34 nM; in experiment [2], 6 nM; in experiment [3], 101 nM.
Turning to `O[C@@H](CN1[C@@H]2CC[C@H]1C[C@@H](Cc1ccc(F)cc1)C2)c1ccccc1`, the values for the Ki in experiment [1], in experiment [2] and in experiment [3] were 0.7 nM, 0.9 nM and 22 nM, respectively. Moreover, the inhibition with Oocyte was 8.7%.
`O[C@H](CN1[C@@H]2CC[C@H]1C/C(=C\c1ccc(F)cc1)C2)c1ccccc1`: the figures for the Ki in experiment [1], in experiment [2] and in experiment [3] were 2.9 nM, 0.45 nM and 11 nM, respectively. Besides, the inhibition in the experiment on Oocyte was found to be 1.7%.
Regarding `O[C@H](CN1[C@@H]2CC[C@H]1C/C(=C/c1ccc(Cl)cc1)C2)c1ccccc1`, the Ki in experiment [1] was 20 nM; in experiment [2], 9 nM; in experiment [3], 47 nM.
For `O[C@@H](CN1[C@@H]2CC[C@H]1C[C@H](Cc1ccc(F)cc1)C2)c1ccccc1`, the Ki stood at 17 nM in experiment [1], 7 nM in experiment [2] and 23 nM in experiment [3]. Besides, the inhibition in the experiment on Oocyte was determined as 5.4%.
As to `O[C@@H](CN1[C@@H]2CC[C@H]1C/C(=C/c1ccc(F)cc1)C2)c1ccc(F)cc1`, the Ki in experiment [1] came to 7 nM; in experiment [2], 28 nM; in experiment [3], 21 nM.
On to `O[C@@H](CN1[C@@H]2CC[C@H]1C[C@@H](Cc1ccccc1)C2)c1ccc(F)cc1`, for which the Ki was determined as 1.7 nM in experiment [1], 0.7 nM in experiment [2] and 6 nM in experiment [3].
The matching figures for `O[C@@H](CN1[C@@H]2CC[C@H]1C[C@H](Cc1ccccc1)C2)c1ccccc1`: 21 nM, 7 nM and 14 nM.
In the case of `C[C@H]([C@H](O)c1ccc(O)cc1)N1CCC(Cc2ccccc2)CC1`, the Ki in experiment [1] stood at 5.8 nM.
Regarding `O[C@H](CN1[C@@H]2CC[C@H]1C[C@H](Cc1ccc(F)cc1)C2)c1ccccc1`, the Ki in experiment [1] was 1.9 nM; in experiment [2] it was 2.1 nM; in experiment [3], 11 nM. Further, the inhibition with Oocyte was 3.1%.
`OC(CN1CCC(Cc2ccc(F)cc2)CC1)c1ccc(Cl)cc1` (stereo not drawn) [ELIPRODIL]: the Ki in experiment [1] stood at 13 nM.
`O[C@@H](CN1[C@@H]2CC[C@H]1C[C@@H](Cc1ccc(F)cc1)C2)c1ccc(F)cc1`: the Ki was 0.8 nM in experiment [1], 1.2 nM in experiment [2] and 5.9 nM in experiment [3].
Turning to `O[C@@H](CN1[C@@H]2CC[C@H]1C/C(=C/c1ccc(Cl)cc1)C2)c1ccccc1`, the results for the Ki in experiment [1], in experiment [2] and in experiment [3] were 13 nM, 18 nM and 22 nM, respectively.
On to `O[C@@H](CN1[C@@H]2CC[C@H]1C/C(=C\c1ccc(F)cc1)C2)c1ccc(F)cc1`, for which the Ki amounted to 1 nM in experiment [1], 0.9 nM in experiment [2] and 15 nM in experiment [3].
With `O[C@H](CN1[C@@H]2CC[C@H]1C[C@H](Cc1ccccc1)C2)c1ccccc1` (mixture of isomers), the values for the Ki in experiment [1], in experiment [2] and in experiment [3] were 2.4 nM, 1.9 nM and 11 nM, respectively.
Taken in the same sequence, the figures for `O[C@@H](CN1[C@@H]2CC[C@H]1C[C@@H](Cc1ccccc1)C2)c1ccccc1` were 2.1 nM, 1.3 nM and 9 nM.
In the case of `O[C@@H](CN1[C@@H]2CC[C@H]1C/C(=C/c1ccccc1)C2)c1ccc(F)cc1`, the results for the Ki in experiment [1] and in experiment [3] were 29 nM and 47 nM, respectively.

A word on the Ki: it is the equilibrium dissociation constant of an inhibitor or competing ligand from its target. The term inhibition denotes the drop in the measured response relative to a control, in per cent.
